Experimental data: US11896707B2, “Cosmetic preparations comprising Daphne extracts” (ETH Zurich, priority 2018, dated 2024)

Key:
[1] = system: LEC: lymphatic endothelial cell; test: LEC proliferation in vitro; format: cell-based
Experimental: Selectivity was examined using D. giraldii extracts. D. giraldii extract (CH3OH) promoted endothelial cell proliferation in vitro. […] At least 2 independent experiments with n=5 were performed for each cell type. LEC: lymphatic endothelial cell; HDFB: human dermal fibroblast; HaCaT: immortalized human keratinocyte; BEC: blood endothelial cell.
Daphnetoxin induced LEC proliferation most potently at 0.03 pM reaching 247±38% of control (0.1% DMSO).

[2] = system: lymphatic endothelial cell (LEC); test: Stability test: LEC sprouting activity after storage; format: cell-based; conditions: prolonged exposure at 4° C., 25° C. and 50° C. for one week
From the text: The D. giraldii extract and daphnetoxin were subjected to stability tests.

[3] = Stability test by HPLC-UV-MS analysis; format: physicochemical; conditions: storage in DMSO for one week at 50° C.
[4] = system: HDFB: human dermal fibroblast; test: Toxicity on HDFB; format: cell-based; conditions: FIG. 8
From the text: (§1) Toxicity of the extracts according to example 2 was investigated. […] (LEC: lymphatic endothelial cell; HDFB: human dermal fibroblast; HaCaT: immortalized human keratinocyte; BEC: blood endothelial cell). The results are summarized in FIG. 8 and indicate its usefulness in cosmetic applications.

[5] = system: BEC: blood endothelial cell; test: Toxicity on BEC; format: cell-based; conditions: FIG. 8
From the text: as §1

[6] = system: HaCaT: immortalized human keratinocyte; test: Toxicity on HaCaT; format: cell-based; conditions: FIG. 8
From the text: as §1

[7] = system: LEC: lymphatic endothelial cell; test: Toxicity on LEC; format: cell-based; conditions: FIG. 8
From the text: as §1

[8] = system: lymphatic endothelial cell (LEC); test: LEC sprouting assay (LEC-covered dextran beads, sprouts per bead); format: cell-based
Experimental: Stimulation of the lymphatic system: Lymph vessels fulfill an important role in order to maintain the microenvironment surrounding tissue in a constant state by removing unwanted substances present in skin as well as water and protein constantly escaping from blood vessels. […] This action was tested using in vitro test methods. In particular, using a model of sprouting assay developed previously (c.f. ADD Reference SCHULZ MM ET AL., PNAS 2012: PMID 22949700), a library of plant extracts was screened for extracts inducing lymphatic endothelial cell (LEC) sprouting. The key findings were further verified and analysed to characterize the active ingredients. The advantageous effects of the plant extracts were further confirmed by conducting relevant cell proliferation assays, in vitro migration assays and LEC tube formation assays. Given the positive results in all above mentioned assays, one can deduct the positive effect of the plant extracts and the active ingredient thereof, on improving lymphatic vascular function.
After a 24 hour incubation of fluorescently labeled LEC (lymphatic endothelial cell)-covered dextran beads with 10 pg/mL of extracts from a library of 1954 plant-derived samples, sprout formation was assessed by determining the ratio of sprouts per bead. 0.1% DMSO served as a vehicle control. Each extract was tested as 1-plicate and the entire library was screened in two independent replicates.
Sprout formation was assessed by determining the ratio of sprouts per bead. 0.1% DMSO and VEGF-A (20 ng/mL) served as negative and positive controls respectively.
0.1% DMSO served as a vehicle control and VEGF-A (20 ng/mL) as a positive control.

**Q.** With `C=C(C)[C@]12C[C@@H](C)[C@@]34OC(c5ccccc5)(O[C@@H]1[C@@H]3[C@@H]1O[C@]1(CO)[C@@H](O)[C@]1(O)C(=O)C(C)=C[C@H]14)O2` [Daphnetoxin] as the compound, how does the “concentration from which LEC proliferation is significantly induced” value ([1]; 6 replicates, FIG. 7B) read?
**A.** Its value is at least 0.003 pM.

**Q.** And the “LEC proliferation, specificity” value ([1]; Ex. 8, FIG. 8)?
**A.** Its value is “promoted lymphatic endothelial cell proliferation specifically”.

**Q.** What about the LEC proliferation ([1]; at 0.03 pM (most potent concentration), FIG. 7B) of the same compound?
**A.** The LEC proliferation was 247±38 % of control (0.1% DMSO).

**Q.** What about the “activity of LEC sprouting after storage” value [2] of the same compound?
**A.** Its value is “consistent activity of LEC sprouting”.

**Q.** And the “stability by HPLC-UV-MS analysis” value [3]?
**A.** The value was “confirms stability”.

**Q.** What about the “cytotoxic effects on HDFB” value [4] of the same compound?
**A.** Its value is “did not evoke any cytotoxic effects”.

**Q.** And the “cytotoxic effects on BEC” value [5]?
**A.** The value was “did not evoke any cytotoxic effects”.

**Q.** And the “cytotoxic effects on HaCaT” value [6]?
**A.** Its value is “did not evoke any cytotoxic effects”.

**Q.** What about the “cytotoxic effects on LEC” value [7] of the same compound?
**A.** The value was “did not evoke any cytotoxic effects”.

**Q.** And the “LEC sprouting, sprouts/bead” value ([8]; at 100 nM, FIG. 7A)?
**A.** Its value is 4.05 sprouts/bead.

**Q.** And the “sprouting activity of HPLC fractions (HPLC-based activity profiling)” value ([8]; fraction from D. giraldii dichloromethane extract, FIG. 6)?
**A.** The value was “main active compound”.

**Q.** What about the “concentration from which LEC sprouting is significantly induced” value ([8]; further experiment, 6 replicates, FIG. 7A) of the same compound?
**A.** The value was at least 10 nM.
